From patent US4273775A, “Hydantoin derivatives, anti-diabetic compositions thereof, and method of use thereof” (Pfizer Inc., priority 1980, dated 1981)

Columns and labels:
[1] = test system: sorbitol accumulation in the sciatic nerve of streptozotocinized rats; experiment: inhibition of sorbitol accumulation in the sciatic nerve of streptozotocinized (diabetic) rats; assay type: in vivo; details: measured 27 hours after induction of diabetes, vs untreated
Method: The activity of the compounds of the present invention, as agents for the control of chronic diabetic complications, is determined by their ability to successfully pass one or more of the following standard biological and/or pharmacological tests, viz., (1) measuring their ability to inhibit the enzyme activity of isolated aldose reductase; (2) measuring their ability to reduce or inhibit sorbitol accumulation in the sciatic nerve of acutely streptozotocinized (i.e., diabetic) rats; (3) measuring their ability to reverse already-elevated sorbitol levels in the sciatic nerve and lens of chronic streptozotocin-induced diabetic rats; (4) measuring their ability to prevent or inhibit galactitol formation in the lens of acutely galactosemic rats, and (5) measuring their ability to delay cataract formation and reduce the severity of lens opacities in chronic galactosemic rats. The following tetrahydroquinoline-derived spiro-hydantoin compounds of Examples 1 and 3-4, respectively, were tested for their ability to reduce or inhibit sorbitol accumulation in the sciatic nerve of streptozotocinized (i.e., diabetic) rats by the procedure essentially described in U.S. Pat. No. 3,821,383. In the present study, the amount of sorbitol accumulation in the sciatic nerves was measured 27 hours after induction of diabetes. The compounds were administered orally at the dose levels indicated at 4, 8 and 24 hours following the administration of streptozotocin. The results obtained in this manner are presented below in terms of percent inhibition (%) afforded by the test compound as compared to the case where no compound was administered (i.e., the untreated animal where sorbitol levels normally rise from approximately […]. tissue to as high as 400 mM/g. tissue in the 27-hour test period): […]

[2] = test system: sorbitol levels in diabetic rats; experiment: control (inhibition) of the formation of sorbitol levels in diabetic rats, oral; assay type: in vivo; details: 5.0 mg./kg. to 25 mg./kg.
Source text: As previously indicated, the tetrahydroquinoline-derived spiro-hydantoin compounds of this invention are all readily adapted to therapeutic use as aldose reductase inhibitors for the control of chronic diabetic complications, in view of their ability to reduce lens sorbitol levels in diabetic subjects to a statistically significant degree. […] The other compounds of this invention also cause similar results. Furthermore, all the herein described compounds of this invention can be administered by either the oral or parenteral routes of administration, for the present purposes at hand, without causing any significant untoward pharmacological side reactions to occur in the subject to whom they are so administered. In general, these compounds are ordinarily administered in dosages ranging from about 0.25 mg. to about 25 mg. per kg. of body weight per day, although variations will necessarily occur depending upon the weight and condition of the subject being treated and the particular route of administration chosen.

[3] = 5.0 mg./kg. orally at 4, 8 and 24 hours after streptozotocin

SMILES | Percent Inhibition (%) of sorbitol accumulation in sciatic nerve [1, 3] | Percent Inhibition (%) of sorbitol accumulation in sciatic nerve ([1]; 10 mg./kg. orally at 4, 8 and 24 hours after streptozotocin) | control (i.e., inhibit) the formation of sorbitol levels in diabetic rats [2]
CN1CCC2(NC(=O)NC2=O)c2ccccc21.Cl (stereo not shown) [Product of Example 1, 1'-methyl-1',2',3',4'-tetrahydro-spiro-[imidazolidine-4,4'-quinoline]-2,5-dione hydrochloride] | 19% |  | 
O=C1NC(=O)C2(CCNc3cc(Cl)ccc32)N1 (stereo not shown) [Product of Example 3, 7'-chloro-1',2',3',4'-tetrahydro-spiro-[imidazolidine-4,4'-quinoline]-2,5-dione] | 23% |  | 
O=C1NC(=O)C2(CCNc3ccc(Cl)cc32)N1 (stereo not shown) [Product of Example 4, 6'-chloro-1',2',3',4'-tetrahydro-spiro-[imidazolidine-4,4'-quinoline]-2,5-dione] |  | 80% | consistently control (i.e., inhibit) the formation of sorbitol levels in diabetic rats to a significantly high degree
